The supplement of paper PMC11451515

System: P12-Ichikawa
Test: cell viability relative to DMSO control; higher = less cytotoxic
Conditions: 48 h
Procedure, shortened: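 Leukemia cells (NOMO1 or SEM, 500 cells/well; P12-Ichikawa, 1000 cells/well) were seeded in 5 μl in 1536-well plates after at least four passages of adaptation to each medium. They received library compounds in DMSO by pin dosing, 11 threefold points from 47 μM to 0.79 nM. Luminescence with CellTiter-Glo One was read after 48 h at 37°C. Viability is stated per plate relative to DMSO wells, with cell-free wells as background.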

[1] = HPLM + 10% dialyzed FBS, 0.000781 µM
[2] = HPLM + 10% dialyzed FBS, 0.00234 µM
[3] = HPLM + 10% dialyzed FBS, 0.00702 µM
[4] = HPLM + 10% dialyzed FBS, 0.0211 µM
[5] = HPLM + 10% dialyzed FBS, 0.0632 µM
[6] = HPLM + 10% dialyzed FBS, 0.19 µM
[7] = HPLM + 10% dialyzed FBS, 0.569 µM
[8] = HPLM + 10% dialyzed FBS, 1.71 µM
[9] = HPLM + 10% dialyzed FBS, 5.12 µM
[10] = HPLM + 10% dialyzed FBS, 15.4 µM
[11] = HPLM + 10% dialyzed FBS, 46.1 µM
[12] = RPMI 5 mM glucose + 10% FBS, 0.000781 µM
[13] = RPMI 5 mM glucose + 10% FBS, 0.00234 µM
[14] = RPMI 5 mM glucose + 10% FBS, 0.00702 µM
[15] = RPMI 5 mM glucose + 10% FBS, 0.0211 µM
[16] = RPMI 5 mM glucose + 10% FBS, 0.0632 µM
[17] = RPMI 5 mM glucose + 10% FBS, 0.19 µM
[18] = RPMI 5 mM glucose + 10% FBS, 0.569 µM
[19] = RPMI 5 mM glucose + 10% FBS, 1.71 µM
[20] = RPMI 5 mM glucose + 10% FBS, 5.12 µM
[21] = RPMI 5 mM glucose + 10% FBS, 15.4 µM
[22] = RPMI 5 mM glucose + 10% FBS, 46.1 µM
[23] = RPMI 5 mM glucose + 10% dialyzed FBS, 0.000781 µM
[24] = RPMI 5 mM glucose + 10% dialyzed FBS, 0.00234 µM
[25] = RPMI 5 mM glucose + 10% dialyzed FBS, 0.00702 µM
[26] = RPMI 5 mM glucose + 10% dialyzed FBS, 0.0211 µM
[27] = RPMI 5 mM glucose + 10% dialyzed FBS, 0.0632 µM
[28] = RPMI 5 mM glucose + 10% dialyzed FBS, 0.19 µM
[29] = RPMI 5 mM glucose + 10% dialyzed FBS, 0.569 µM
[30] = RPMI 5 mM glucose + 10% dialyzed FBS, 1.71 µM
[31] = RPMI 5 mM glucose + 10% dialyzed FBS, 5.12 µM
[32] = RPMI 5 mM glucose + 10% dialyzed FBS, 15.4 µM
[33] = RPMI 5 mM glucose + 10% dialyzed FBS, 46.1 µM

Compound | cell viability [1] [%] | cell viability [2] [%] | cell viability [3] [%] | cell viability [4] [%] | cell viability [5] [%] | cell viability [6] [%] | cell viability [7] [%] | cell viability [8] [%] | cell viability [9] [%] | cell viability [10] [%] | cell viability [11] [%] | cell viability [12] [%] | cell viability [13] [%] | cell viability [14] [%] | cell viability [15] [%] | cell viability [16] [%] | cell viability [17] [%] | cell viability [18] [%] | cell viability [19] [%] | cell viability [20] [%] | cell viability [21] [%] | cell viability [22] [%] | cell viability [23] [%] | cell viability [24] [%] | cell viability [25] [%] | cell viability [26] [%] | cell viability [27] [%] | cell viability [28] [%] | cell viability [29] [%] | cell viability [30] [%] | cell viability [31] [%] | cell viability [32] [%] | cell viability [33] [%]
Nc1nc(-c2nn(Cc3ccccc3F)c3ncccc23)nc(N)c1N1CCOCC1 | 92.3 | 100 | 105 | 111 | 111 | 112 | 110 | 109 | 109 | 107 | 95.9 | 93.1 | 97.9 | 98.8 | 116 | 107 | 112 | 110 | 109 | 107 | 111 | 107 | 86.1 | 101 | 100 | 108 | 104 | 92.1 | 107 | 101 | 104 | 103 | 87.3
O=C(Nc1ccc(OC(F)(F)F)cc1)c1sccc1NCc1ccnc2ccccc12 | 112 | 113 | 108 | 116 | 106 | 112 | 41.4 | 12.8 | 10.7 | 8.54 | 7.05 | 106 | 121 | 118 | 120 | 118 | 113 | 102 | 72.6 | 25.9 | 10.3 | 9.62 | 109 | 119 | 111 | 120 | 108 | 103 | 110 | 73.5 | 33.1 | 16.6 | 16.1
OC[C@H]1O[C@@H](Oc2ccc(O)cc2)[C@H](O)[C@@H](O)[C@@H]1O | 85.1 | 93.5 | 93.1 | 95.7 | 98.3 | 99.9 | 102 | 101 | 94.2 | 98.4 | 97 | 80.7 | 79.8 | 87 | 94.9 | 95.7 | 86 | 84.7 | 83.6 | 90.9 | 93.1 | 91.3 | 80.1 | 84.8 | 91.1 | 93.4 | 93.6 | 87.8 | 88.4 | 88.7 | 93.1 | 89.6 | 88.4
O=C/1\C=C(/OC(=C1)/C2=C3SC4=C(SC3=CC=C2)C=CC=C4)N5CCOCC5 | 81.4 | 100 | 98.5 | 10.6 | 100 | 103 | 102 | 98.1 | 95.2 | 94.4 | 95 | 84.7 | 92.7 | 96.9 | 11.2 | 103 | 100 | 106 | 104 | 93.1 | 102 | 102 | 83.4 | 94.4 | 97.2 | 23.7 | 95.7 | 84.4 | 99.2 | 99.4 | 96 | 95.7 | 90.8
